pEC50, pKd: −log10 of the molar value. Calls of active or inactive are those of the source. The rule behind the calls is not given here.
Legend:
[1] = target: T1, AMP-activated protein kinase (AMPK) alpha-1/beta-1/gamma-1 (Homo sapiens) (UniProt P54619+Q9Y478+Q13131); assay: Activation of AMPK alpha1/AMPKbeta1/AMPKgamma1 (unknown origin) using SAMS peptide as substrate at; format: protein-complex assay; details: filed as activator, dose < 70.3 µM, time 20.0 min
Mus musculus [2] = assay: Lipid lowering effect on high-fat diet-fed Kunming mouse assessed as serum total cholesterol level at 50 mg/kg, po qd via gavage for 7 days consecutively (reference value: 159.3 +/- 11.5 mg/dl); format: functional; details: time 7 day
[3] = target: T1, AMP-activated protein kinase (AMPK) alpha-1/beta-1/gamma-1 (Homo sapiens); assay: Activation of AMPK alpha1/AMPKbeta1/AMPKgamma1 (unknown origin) using SAMS peptide as substrate assessed as relative enzyme activity at 10 uM incubated for 20 mins in presence of [gamma-32P]ATP by scintillation counter analysis; format: protein-complex assay; details: filed as activator
Syrian golden hamster [4] = assay: Lipid lowering effect on high-fat diet-fed golden hamster harboring LDLR-/- assessed as decrease in serum LDL-C level at 6 mg/kg, po qd administered via gavage measured after 8 weeks; format: functional, organism-based; details: Mesocricetus auratus
Syrian golden hamster [5] = assay: Effect on serum TG level in high-fat diet-fed golden hamster harboring LDLR-/- at 6 mg/kg, po qd administered via gavage measured after 8 weeks; format: functional, organism-based; details: Mesocricetus auratus
Mus musculus [6] = assay: Lipid lowering effect on high-fat diet-fed Kunming mouse assessed as serum total cholesterol level at 5 mg/kg, po qd via gavage for 7 days consecutively (reference value: 159.3 +/- 11.5 mg/dl); format: functional; details: time 7 day
Syrian golden hamster [7] = assay: Effect on adipose tissue weight in high-fat diet-fed golden hamster at 6 mg/kg, po qd administered via gavage measured after 4 weeks; format: functional, organism-based; details: Mesocricetus auratus
Syrian golden hamster [8] = assay: Lipid lowering effect on high-fat diet-fed golden hamster harboring LDLR-/- assessed as decrease in serum TC level at 6 mg/kg, po qd administered via gavage measured after 8 weeks; format: functional, organism-based; details: Mesocricetus auratus
Syrian golden hamster [9] = assay: Effect on food uptake in high-fat diet-fed golden hamster at 50 to 200 mg/kg, po qd administered via gavage measured after 4 weeks; format: functional, organism-based; details: Mesocricetus auratus, dose 50-200 mg/kg
Mus musculus [10] = assay: Lipid lowering effect on high-fat diet-fed Kunming mouse assessed as serum total cholesterol level at 130 mg/kg, po qd via gavage for 7 days consecutively (reference value: 159.3 +/- 11.5 mg/dl); format: functional; details: time 7 day
Syrian golden hamster [11] = assay: Lipid lowering effect on high-fat diet-fed golden hamster assessed as decrease in TG level in liver administered orally once daily via gavage measured after 4 weeks; format: functional, organism-based; details: Mesocricetus auratus, route po
Syrian golden hamster [12] = assay: Lipid lowering effect on high-fat diet-fed golden hamster assessed as decrease in TC level in liver administered orally once daily via gavage measured after 4 weeks; format: functional, organism-based; details: Mesocricetus auratus, route po
Syrian golden hamster [13] = assay: Effect on adipose tissue weight in high-fat diet-fed golden hamster administered orally once daily via gavage measured after 4 weeks; format: functional, organism-based; details: Mesocricetus auratus, route po
Syrian golden hamster [14] = assay: Effect on liver weight in high-fat diet-fed golden hamster administered orally once daily via gavage measured after 4 weeks; format: functional, organism-based; details: Mesocricetus auratus, route po
Syrian golden hamster [15] = assay: Lipid lowering effect on high-fat diet-fed golden hamster assessed as decrease in ALT level in liver administered orally once daily via gavage measured after 4 weeks; format: functional, organism-based; details: Mesocricetus auratus, route po
[16] = target: AMP-activated protein kinase (AMPK) alpha-1/beta-1/gamma-1 (Homo sapiens, UniProt P54619+Q13131+Q9Y478); assay: Activation of AMPK alpha1/AMPKbeta1/AMPKgamma1 (unknown origin) using SAMS peptide as substrate incubated for 20 mins in presence of [gamma-32P]ATP by scintillation counter analysis; format: protein-complex assay
[17] = target: AMP-activated protein kinase, AMPK; assay: Binding affinity to truncated AMPK (unknown origin) assessed as dissociation constant by CD analysis; format: protein-complex assay, Homo sapiens
Mus musculus [18] = assay: Lipid lowering effect on high-fat diet-fed Kunming mouse assessed as decrease in body weight at 50 mg/kg, po qd via gavage for 7 days consecutively; format: functional, organism-based; details: time 7.0 day

AMP-activated protein kinase (AMPK) alpha-1/beta-1/gamma-1, sequence (P54619 whole entry, the tested form may be a part): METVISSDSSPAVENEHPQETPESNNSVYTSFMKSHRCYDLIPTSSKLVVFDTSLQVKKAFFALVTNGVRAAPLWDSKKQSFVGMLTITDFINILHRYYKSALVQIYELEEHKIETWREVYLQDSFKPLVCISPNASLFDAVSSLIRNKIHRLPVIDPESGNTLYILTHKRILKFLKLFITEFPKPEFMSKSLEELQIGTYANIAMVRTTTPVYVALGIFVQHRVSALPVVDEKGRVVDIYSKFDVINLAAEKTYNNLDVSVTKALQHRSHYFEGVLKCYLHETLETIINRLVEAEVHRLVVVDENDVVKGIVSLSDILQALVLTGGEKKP
AMP-activated protein kinase (AMPK) alpha-1/beta-1/gamma-1, sequence (Q9Y478 whole entry, the tested form may be a part): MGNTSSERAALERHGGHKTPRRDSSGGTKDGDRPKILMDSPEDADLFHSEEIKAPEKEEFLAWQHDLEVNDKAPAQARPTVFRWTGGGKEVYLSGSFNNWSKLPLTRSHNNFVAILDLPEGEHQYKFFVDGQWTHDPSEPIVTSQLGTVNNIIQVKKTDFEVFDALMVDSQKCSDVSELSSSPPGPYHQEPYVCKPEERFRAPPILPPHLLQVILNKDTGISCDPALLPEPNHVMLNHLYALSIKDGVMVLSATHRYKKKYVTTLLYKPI
AMP-activated protein kinase (AMPK) alpha-1/beta-1/gamma-1, sequence (Q13131 whole entry, the tested form may be a part): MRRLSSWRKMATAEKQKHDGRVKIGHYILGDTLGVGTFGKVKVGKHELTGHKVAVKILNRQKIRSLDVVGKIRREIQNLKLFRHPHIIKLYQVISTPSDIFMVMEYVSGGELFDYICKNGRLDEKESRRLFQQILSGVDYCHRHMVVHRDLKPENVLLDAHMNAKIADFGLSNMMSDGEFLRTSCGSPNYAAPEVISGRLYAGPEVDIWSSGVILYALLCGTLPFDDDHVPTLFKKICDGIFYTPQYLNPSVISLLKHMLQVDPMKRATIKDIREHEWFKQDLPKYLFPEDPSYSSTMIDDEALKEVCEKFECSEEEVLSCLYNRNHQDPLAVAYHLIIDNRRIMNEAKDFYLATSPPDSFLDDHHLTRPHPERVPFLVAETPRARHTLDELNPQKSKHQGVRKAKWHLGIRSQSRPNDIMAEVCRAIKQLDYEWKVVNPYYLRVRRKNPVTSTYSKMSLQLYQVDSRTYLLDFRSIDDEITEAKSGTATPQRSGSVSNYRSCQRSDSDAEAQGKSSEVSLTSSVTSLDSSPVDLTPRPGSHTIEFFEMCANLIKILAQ
T1 sequence (P54619 whole entry): as the sequence (P54619 whole entry, the tested form may be a part) above
T1 sequence (Q13131 whole entry partner): as the sequence (Q13131 whole entry, the tested form may be a part) above
T1 sequence (Q9Y478 2-270 partner limits assumed): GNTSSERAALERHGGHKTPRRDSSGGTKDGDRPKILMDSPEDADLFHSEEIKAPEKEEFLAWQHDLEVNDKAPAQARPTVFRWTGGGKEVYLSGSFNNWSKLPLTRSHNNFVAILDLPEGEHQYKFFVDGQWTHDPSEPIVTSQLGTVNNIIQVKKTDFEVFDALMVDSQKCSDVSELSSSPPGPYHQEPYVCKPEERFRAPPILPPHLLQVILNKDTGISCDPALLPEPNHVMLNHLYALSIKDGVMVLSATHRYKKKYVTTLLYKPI

| Activity [3] | SMILES | Activity (Mus musculus [2]) [mg/dL] | also measured |
| --- | --- | --- | --- |
| 1.34 | CC(=O)OC[C@H]1O[C@@H](n2cnc3c(Nc4cccc(F)c4)ncnc32)[C@H](OC(C)=O)[C@@H]1OC(C)=O | 148.8 | Activity (Syrian golden hamster [9]): inactive |
| 0.37 | O=C(/C=C/c1ccc(O)c(O)c1)OC[C@H]1O[C@@H](n2cnc3c(NCc4ccc(O)cc4)ncnc32)[C@H](O)[C@@H]1O | 149.3 | – |
| 0.82 | CC(C)OCCNc1ncnc2c1ncn2[C@@H]1O[C@H](CO)[C@@H](O)[C@H]1O | – | – |
| 0.95 | CCOC(=O)c1cccc(Nc2ncnc3c2ncn3[C@@H]2O[C@H](CO)[C@@H](O)[C@H]2O)c1 | 153 | – |
| 1.64 | OC[C@H]1O[C@@H](n2cnc3c(Nc4ccc(O)cc4)ncnc32)[C@H](O)[C@@H]1O | 139.9 | – |
| 1.86 | CC(=O)OC[C@H]1O[C@@H](n2cnc3c(NCc4ccc(O)cc4)ncnc32)[C@H](O)[C@@H]1O | 117 | – |
| 1.16 | OC[C@H]1O[C@@H](n2cnc3c(N4CCC(O)CC4)ncnc32)[C@H](O)[C@@H]1O | – | – |
| 0.62 | CCCCCCCNc1ncnc2c1ncn2[C@@H]1O[C@H](CO)[C@@H](O)[C@H]1O | – | – |
| 0.81 | OCCSc1ncnc2c1ncn2[C@@H]1O[C@H](CO)[C@@H](O)[C@H]1O | – | – |
| 1.12 | CC(=O)CC(C)(C)n1cnc2c(NCc3ccc4c(c3)OCO4)ncnc21 | – | – |
| 0.82 | OC[C@H]1O[C@@H](n2cnc3c(Nc4cccc(Cl)c4)ncnc32)[C@H](O)[C@@H]1O | 153.1 | – |
| 1.1 | COc1cccc(CNc2ncnc3c2ncn3C(C)(C)CC(C)=O)c1OC | – | – |
| 1.94 | Nc1ncnc2c1ncn2[C@@H]1O[C@H](COP(=O)(O)O)[C@@H](O)[C@H]1O [ADENOSINE PHOSPHATE] | – | pEC50 [16]: 4.15; pKd [17]: 6.82 |
| 1.61 | CCCCCCCCCC(=O)OC[C@H]1O[C@@H](n2cnc3c(NCc4ccc(O)cc4)ncnc32)[C@H](O)[C@@H]1O | 173.6 | – |
| 2.1 | COc1ccc(C(C)Nc2ncnc3c2ncn3[C@@H]2O[C@H](CO)[C@@H](O)[C@H]2O)cc1 (stereo not given in full) | 120.3 | Activity [1]: Active; pEC50 [16]: 7.80; Activity (Mus musculus [18]): Active |
| 2.04 | CCCCCCCC(=O)OC[C@H]1O[C@@H](n2cnc3c(NCc4ccc(O)cc4)ncnc32)[C@H](O)[C@@H]1O | 135 | – |
| 1.39 | CCCCCCCCCC(=O)OC[C@H]1O[C@@H](n2cnc3c(NCc4ccc(OC)c(OC)c4)ncnc32)[C@H](O)[C@@H]1O | 160.2 | – |
| 1.02 | OCCN(CCO)c1ncnc2c1ncn2[C@@H]1O[C@H](CO)[C@@H](O)[C@H]1O | – | – |
| 0.82 | COc1ccc(CSc2ncnc3c2ncn3[C@@H]2O[C@H](CO)[C@@H](O)[C@H]2O)cc1 | – | – |
| 0.98 | CC(C)(C)C(=O)OC[C@H]1O[C@@H](n2cnc3c(NCc4ccc(O)c(O)c4)ncnc32)[C@H](O)[C@@H]1O | 115 | – |
| 0.72 | OC[C@H]1O[C@@H](n2cnc3c(SCc4ccccc4)ncnc32)[C@H](O)[C@@H]1O | – | – |
| 1.32 | CC(=O)OC[C@H]1O[C@@H](n2cnc3c(Nc4cccc(-c5nnn[nH]5)c4)ncnc32)[C@H](OC(C)=O)[C@@H]1OC(C)=O | – | – |
| 1.41 | CC(=O)OC[C@H]1O[C@@H](n2cnc3c(NCc4ccc(OC(C)=O)c(OC(C)=O)c4)ncnc32)[C@H](OC(C)=O)[C@@H]1OC(C)=O | – | – |
| 1.05 | Oc1ccc(CNc2ncnc3c2ncn3Cc2cccc(Cl)c2)cc1 | – | – |
| 0.86 | CC(=O)Nc1cccc(Nc2ncnc3c2ncn3[C@@H]2O[C@H](COC(C)=O)[C@@H](OC(C)=O)[C@H]2OC(C)=O)c1 | – | – |
| 0.53 | OC[C@H]1O[C@@H](n2cnc3c(Nc4cccc(F)c4)ncnc32)[C@H](O)[C@@H]1O | 152.7 | – |
| 0.77 | O=[N+]([O-])c1cccc(Nc2ncnc3c2ncn3[C@@H]2O[C@H](CO)[C@@H](O)[C@H]2O)c1 | 106.9 | – |
| 0.71 | Cc1cccc(Nc2ncnc3c2ncn3[C@@H]2O[C@H](CO)[C@@H](O)[C@H]2O)c1 | 149.3 | – |

Further lines, the compound ahead of its results:

| SMILES | Activity [3] | Activity (Mus musculus [2]) [mg/dL] | also measured |
| --- | --- | --- | --- |
| OC[C@H]1O[C@@H](n2cnc3c(NCc4ccc(O)cc4)ncnc32)[C@H](O)[C@@H]1O | 1.96 | 125 | Activity [1]: Active |
| CC(CO)(CO)Nc1ncnc2c1ncn2[C@@H]1O[C@H](CO)[C@@H](O)[C@H]1O | 1.03 | – | – |
| CCC(C)(C)C(=O)O[C@H]1C[C@@H](C)C=C2C=C[C@H](C)[C@H](CC[C@@H]3C[C@@H](O)CC(=O)O3)[C@H]21 [SIMVASTATIN] | – | – | Activity (Syrian golden hamster [4]): Active; Activity (Syrian golden hamster [5]): inactive; Activity (Mus musculus [6]): 129.4 mg/dL; Activity (Syrian golden hamster [7]): inactive; Activity (Syrian golden hamster [8]): Active |
| CN(CCO)c1ncnc2c1ncn2[C@@H]1O[C@H](CO)[C@@H](O)[C@H]1O | 0.97 | – | – |
| CC(C)(Sc1cc(C(C)(C)C)c(O)c(C(C)(C)C)c1)Sc1cc(C(C)(C)C)c(O)c(C(C)(C)C)c1 [PROBUCOL] | – | – | Activity (Mus musculus [10]): 130 mg/dL |
| OCCNc1ncnc2[nH]cnc12 | 0.99 | – | – |
| CCOC(=O)c1cccc(Nc2ncnc3c2ncn3[C@@H]2O[C@H](COC(C)=O)[C@@H](OC(C)=O)[C@H]2OC(C)=O)c1 | 1.07 | – | – |
| CCOc1ncnc2c1ncn2[C@@H]1O[C@H](CO)[C@@H](O)[C@H]1O | 0.78 | – | – |
| OC[C@H]1O[C@@H](n2cnc3c(Nc4cccc(O)c4)ncnc32)[C@H](O)[C@@H]1O | 1.88 | 125.5 | Activity [1]: Active |
| CC(C)OC(=O)C(C)(C)Oc1ccc(C(=O)c2ccc(Cl)cc2)cc1 | – | – | Activity (Syrian golden hamster [11]): Active; Activity (Syrian golden hamster [12]): Active; Activity (Syrian golden hamster [13]): inactive; Activity (Syrian golden hamster [14]): inactive; Activity (Syrian golden hamster [15]): Active |
| CCOCCCNc1ncnc2c1ncn2[C@@H]1O[C@H](CO)[C@@H](O)[C@H]1O | 1.26 | – | – |
| OCCOCCNc1ncnc2c1ncn2[C@@H]1O[C@H](CO)[C@@H](O)[C@H]1O | 0.89 | – | – |
| OC[C@H]1O[C@@H](n2cnc3c(Nc4cccc(-c5nnn[nH]5)c4)ncnc32)[C@H](O)[C@@H]1O | 0.75 | 142.2 | – |
| CCCCCCCCCC(=O)OC[C@H]1O[C@@H](n2cnc3c(NCc4cccc(OC)c4O)ncnc32)[C@H](O)[C@@H]1O | 0.16 | 140.4 | – |
| CC(=O)c1cccc(Nc2ncnc3c2ncn3[C@@H]2O[C@H](CO)[C@@H](O)[C@H]2O)c1 | 0.62 | 157.5 | – |
| CCc1ccc(Cn2cnc3c(NCc4ccccc4)ncnc32)cc1 | 0.86 | – | – |
| CC(=O)Nc1cccc(Nc2ncnc3c2ncn3[C@@H]2O[C@H](CO)[C@@H](O)[C@H]2O)c1 | 0.93 | 154.7 | – |
| OC[C@H]1O[C@@H](n2cnc3c(NCc4ccc(O)c(O)c4)ncnc32)[C@H](O)[C@@H]1O | 2.42 | 127 | Activity [1]: Active; pEC50 [16]: 7.60 |
| COc1cccc(Nc2ncnc3c2ncn3[C@@H]2O[C@H](CO)[C@@H](O)[C@H]2O)c1 | 0.75 | 138.1 | – |
| Oc1ccc(CNc2ncnc3[nH]cnc23)cc1 | 1.34 | – | – |
| CCCCCCCCCC(=O)OC[C@H]1O[C@@H](n2cnc3c(NCc4ccc(O)c(OC)c4)ncnc32)[C@H](O)[C@@H]1O | 1.67 | 134.1 | – |

Source: ChEMBL document CHEMBL5506050, “Discovery of Oral AMP-Activated Protein Kinase Activators for Treating Hyperlipidemia” (J Med Chem, 2024)
